Common to all, as to assay type: physicochemical
Series [1] is described as follows: Solubility of monomer in water and ethanol. As for the experimental part:
(§1) The solubility of monomer 1 in water and ethanol was determined and the pH value of a 20% solution of the monomer in a 1:1 mixture of ethanol and water measured.

Series [2] in a line: Hydrolytic stability by weekly 1H-NMR of stored solution. The settings on record: 20% solution in 1:1 water/ethanol, stored at 37° C., 8-week investigation period. As for the experimental part: Monomer 1 is dissolved in a 1:1 mixture of water and ethanol and a 20% solution is stored at 37° C. The ^1H-NMR spectrum of the solution is recorded weekly.
Series [3] can be described thus: pH value (acid strength) of a 20% monomer solution. The settings on record: text: 1:1 mixture of ethanol and water. As for the experimental part:
as §1

The mark [4] stands for this setting: water, read-out: water solubility.

Converted amounts (≈) assume the structure as drawn. Read-outs that look alike come from different tables or passages of the source.

As for `C=C(COCCP(=O)(O)OC)C(=O)O` [Monomer 1, 2-[4-hydroxymethoxyphosphoryl-2-oxa-butyl]-acrylic acid], the solubility in series [1] (ethanol, organic solvent or mixture, read-out: solubility in ethanol) is above 500 mg/mL; in series [1] (setting [4]) it was above 500 mg/mL. For the same compound, the “hydrolytic stability (change in 1H-NMR spectrum)” value in series [2] was “no change in the spectrum”. Also, in series [3], the “pH value of a 20% solution” value is given as 0.61.

Turning to `C=C(COCCP(=O)(O)O)C(=O)O` [Comparison monomer, 2-[4-dihydroxyphosphoryl-2-oxa-butyl]-acrylic acid, reference compound], the solubility in ethanol result in series [1] (ethanol) was “practically insoluble”. For the same compound, the solubility in series [1] (setting [4]) was around 400 mg/mL (≈ 1900 mM). In addition, the “pH value of a 20% solution” value in series [3] stood at 1.25.
